Experimental data from patent US20250205264A1, “METHODS OF USING AVERMECTIN COMPOSITIONS FOR THE TREATMENT OF SPASTICITY AND DOSING REGIMENS” (priority 2022, published 2025).

System: pentylenetetrazol (PTZ)-induced ictal brain activity
Test: Modulation of PTZ-induced seizures, BOLD fMRI
Format: in vivo, male Wistar rats
Conditions: for PTZ-induced brain activity: positive control compounds, all tested brain regions, high statistical significance
Procedure: Functional MRI (fMRI) was performed using a high-field preclinical MRI system in anesthetized male Wistar rats in order to determine the modulation of pentylenetetrazol (PTZ)-induced ictal brain activity by chronic treatment with test compound (TC). […] Vehicle and 3 mg/kg Alprazolam served as controls (see, Table 11) Seizures were induced with PTZ in each experimental group. A schematic of the study design can be seen in FIG. 6. Various physiological parameters were also measured throughout the experiment including body weight, CO2 levels, blood pH, and heart rate. […] Vehicle and 3 mg/kg Alprazolam served as controls (see, Table 12).

SMILES	Statistical significances of BOLD fMRI AUC, Vehicle vs. Alprazolam (brain regions) (FIG. 7A, 3 mg/kg+PTZ, two-way ANOVA)	PTZ-induced brain activity
Cc1nnc2n1-c1ccc(Cl)cc1C(c1ccccc1)=NC2 [Alprazolam]	in all	effectively cancelled PTZ-induced brain activity
CN1C(=O)CN=C(c2ccccc2)c2cc(Cl)ccc21 [Diazepam]		effectively cancelled PTZ-induced brain activity
